No end group written: not given here.
Columns and labels:
HL1 cells = experiment: LDH release assay in HL1 cells (1% hypoxia or normoxia); format: cell-based, mouse; conditions: for LDH release: 1% hypoxia
Procedure: H9C2 is a myoblast cell line derived from rat myocardium obtained from ATCC® (CRL-1446, ATCC, Manassas, Va.) and cultured according to the recommended protocols. Briefly, cells were maintained at 37° C. with 5% CO2 in DMEM supplemented with 10% fetal bovine serum and antibiotics (100 U/ml penicillin, […] streptomycin) and split at a ratio of 1:4 using 0.05% trypsin every 36 hours. HL-1 cells were obtained from Dr. William Claycomb and cultured according to the published protocols [Claycomb W C, Lanson N A, Jr., Stallworth B S, Egeland D B, Delcarpio J B, Bahinski A, et al. HL-1 cells: a cardiac muscle cell line that contracts and retains phenotypic characteristics of the adult cardiomyocyte. Proc. Natl Acad. Sci. USA. 1998; 95:2979-84; White S M, Constantin P E, Claycomb W C. Cardiac physiology at the cellular level: use of cultured HL-1 cardiomyocytes for studies of cardiac muscle cell structure and function. Am. J. Physiol. Heart Circul. Physiol. 2004; 286:H823-9]. Briefly, cells were cultured in Claycomb medium (JRH Biosciences, USA) supplemented with 10% fetal bovine serum (JRH Biosciences), 2 mM L-glutamine (Gibco, Grand Island, N.Y.), 100 μM norepinephrine (Sigma, USA), 100 U/mL penicillin, and 100 μg/mL streptomycin (Gibco) in flasks precoated with fibronectin and gelatin (Sigma), then incubated at 37° C. in 5% CO2. Cells were split at a ratio of 1:4 using 0.05% trypsin every 48 hours. Primary cardiac fibroblasts were obtained from 2-4-day-old Sprague Dawley rats, according to previously described protocols (cat. #L K003300, Worthington Biochemical Corp., Lakewood, N.J.) [Toraason M, Luken M E, Breitenstein M, Krueger J A, Biagini R E. Comparative toxicity of allylamine and acrolein in cultured myocytes and fibroblasts from neonatal rat heart. Toxicology. […]
(§1) Cells were rinsed in PMS and grown in DMEM (cat. #11966-025, Gibco) for 2 hours prior to initiating hypoxia (simulated ischemia). […] Three different time points were adopted for each of the three cell lines according to the severity of cell death under hypoxia determined by LDH release: for H9C2 cell line: 8 hr; 16 hr; 24 hr; for HL-1 cell line: 4 hr; 8 hr; 12 hr; for cardiac fibroblast cell line: 16 hr; 32 hr; 48 hr.
(§2) Cell death was first determined using an LDH release assay (cat. #630117, Clontech), according to the manufacturer's instructions. […] Caspase 3/7 activity was next determined using a commercial Caspase 3/7 activity kit (Cat. #G8091, Promega, Madison, Wis. 53711) in a 384 well plate (Cat. #781903, Greiner bio-one) according to the manufacturer's instructions. […] The resulting cell lysates (25 μl, with 0.6 ug total protein) and Caspase-Glo 3/7 Reagent were added to each well in a 1:1 ratio and the luminescence was read (CLARIOstar, BMG LABTECH GmbH). […]

MK2 = experiment: Immunoblot analysis of MK2 activity (HNRNPA0, total MK2, p-MK2) in H9C2 cells; format: cell-based, rat
Procedure: Cells were rinsed in PMS and grown in DMEM (cat. #11966-025, Gibco) for 2 hours prior to initiating hypoxia (simulated ischemia). Hypoxia was induced by placing cells in a hypoxia chamber ([…] 150i, Thermo Scientific) in a mixture of 5% CO2/95% N2 to attain a 1% oxygen concentration, according to the manufacturer's instruction. […] The MMI-0100 peptide was added to the cells at the start of the ischemia time. Cells were cultured in 12 well plates. At the time of performing the experiments, all cultures were approximately 70-90% confluent. Three different time points were adopted for each of the three cell lines according to the severity of cell death under hypoxia determined by LDH release: for H9C2 cell line: 8 hr; 16 hr; 24 hr; for HL-1 cell line: 4 hr; 8 hr; 12 hr; for cardiac fibroblast cell line: 16 hr; 32 hr; 48 hr.
The left over cell lysates from the Caspase activity assay were used for the Western blots. […] After blocking with recommended blocking reagents for 1 h at the room temperature, the membranes were incubated overnight at 4° C. with primary antibodies in TBS-T, and then incubated with secondary antibodies conjugated with HRP in TBS-T. HNRNPA0, MAPK2, and phospho-MAPK2 proteins were detected using anti-HNRNPA0 (cat. #HPA036569, 1:1000, Sigma-Aldrich), anti-MAPKAPK2 (cat. #SAB4300553, Sigma-Aldrich), and anti-phospho-MAPKAPK2 (cat. #SAB4300241, 1:1000, Sigma-Aldrich). […]

H9C2 cells [1] = experiment: LDH release assay in H9C2 cells (1% hypoxia or normoxia); format: cell-based, rat; conditions: for LDH release: 1% hypoxia
Procedure: H9C2 is a myoblast cell line derived from rat myocardium obtained from ATCC® (CRL-1446, ATCC, Manassas, Va.) and cultured according to the recommended protocols. Briefly, cells were maintained at 37° C. with 5% CO2 in DMEM supplemented with 10% fetal bovine serum and antibiotics (100 U/ml penicillin, […] streptomycin) and split at a ratio of 1:4 using 0.05% trypsin every 36 hours. HL-1 cells were obtained from Dr. William Claycomb and cultured according to the published protocols [Claycomb W C, Lanson N A, Jr., Stallworth B S, Egeland D B, Delcarpio J B, Bahinski A, et al. HL-1 cells: a cardiac muscle cell line that contracts and retains phenotypic characteristics of the adult cardiomyocyte. Proc. Natl Acad. Sci. USA. 1998; 95:2979-84; White S M, Constantin P E, Claycomb W C. Cardiac physiology at the cellular level: use of cultured HL-1 cardiomyocytes for studies of cardiac muscle cell structure and function. Am. J. Physiol. Heart Circul. Physiol. 2004; 286:H823-9]. […]
as §1, §2

mouse vein graft model = conditions: Muto et al. 2012; cited from earlier work
[2] = tested on: bleomycin-induced pulmonary fibrosis; conditions: Vittal et al. 2013; cited from earlier work
H9C2 cells [3] = experiment: Caspase 3/7 activity in H9C2 cells challenged with 1% hypoxia; format: cell-based, rat; conditions: 100 μM, 16 and 24 hours
Procedure: H9C2 is a myoblast cell line derived from rat myocardium obtained from ATCC® (CRL-1446, ATCC, Manassas, Va.) and cultured according to the recommended protocols. Briefly, cells were maintained at 37° C. with 5% CO2 in DMEM supplemented with 10% fetal bovine serum and antibiotics (100 U/ml penicillin, […] streptomycin) and split at a ratio of 1:4 using 0.05% trypsin every 36 hours. […]
as §1, §2

[4] = tested on: abdominal adhesions post-surgery; conditions: Ward et al. 2011; cited from earlier work
[5] = tested on: pharmacologically relevant receptors; experiment: Cellular functional assays on pharmacologically relevant receptors; format: cell-based; conditions: data not shown

YARAAARQARAKALARQLGVAA [MMI-0100]
LDH release (HL1 cells; 100 μM only, 8 hours): enhanced | LDH release in normoxic conditions (HL1 cells; 100 μM, normoxia (FIG. 11B)): unexpectedly inhibited | LDH release (HL1 cells; 20 and 100 μM, 4 hours): significantly enhanced | LDH release in normoxic conditions (HL1 cells; absence of hypoxia, 4 hours): did not enhance LDH release | HNRNPA0 expression (MK2; 100 μM, after induction by hypoxia): significantly inhibited | total MK2 and p-MK2 protein levels (MK2; 20 or 100 μM, 1% hypoxia): not changed | LDH release (H9C2 cells [1]; 100 μM only, 16 hours): enhanced | LDH release (H9C2 cells [1]; 20 and 100 μM, 8 hours): significantly enhanced | LDH release in normoxic conditions (H9C2 cells [1]; absence of hypoxia, 8 hours): did not enhance LDH release | inflammation and fibrosis in intimal hyperplasia (mouse vein graft model): inhibits inflammation and fibrosis | inflammation and fibrosis in bleomycin-induced pulmonary fibrosis [2]: inhibits inflammation and fibrosis | caspase 3/7 activity (H9C2 cells [3]): inhibited | abdominal adhesions post-surgery [4]: inhibiting | effect on pharmacologically relevant receptors in cellular functional assays [5]: no substantial effect

From patent publication US10336788B2, “Inhibition of cardiac fibrosis in myocardial infarction” (Moerae Matrix, Inc., priority 2014, dated 2019)
